Experimental data reported in patent US20190359645A1, “2'3'-CYCLIC DINUCLEOTIDES COMPRISING CARBOCYCLIC NUCLEOTIDE” (Institute of Organic Chemistry and Biochemistry ASCR, V.V.I., priority 2018, published 2019).

Assays:
[1] = molecular target: T1, AQ STING (G230A-R293Q) (Homo sapiens, UniProt Q86WV6, G230A/H232R/R293Q); experiment: Differential scanning fluorimetry (DSF) with AQ STING; format: binding; details: thermal shift, truncated human AQ STING 0.1 mg/ml, 150 μM CDN; for ΔTm at 150 µM: read-out: DSF ΔTm AQ STING
T1 construct: truncated human WT STING or AQ STING (amino acid residues 140-343); 8xHis (N, cleaved yes); SUMO (N, cleaved yes); made in house; host or cells: E. coli Rosetta-gami B (DE3)
T1 sequence (Q86WV6 140-343 G230A/H232R/R293Q): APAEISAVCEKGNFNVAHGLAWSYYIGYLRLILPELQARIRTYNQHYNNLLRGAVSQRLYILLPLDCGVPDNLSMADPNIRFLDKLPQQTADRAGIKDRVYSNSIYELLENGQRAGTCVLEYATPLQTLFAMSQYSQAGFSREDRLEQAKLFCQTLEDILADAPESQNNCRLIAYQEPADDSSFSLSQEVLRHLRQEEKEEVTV
Text: (§1) Both WT and AQ human STING (G230A-R^293Q) cDNA were amplified by the use of PCR (Phusion® High-Fidelity DNA Polymerase, cat. # M0530S, NEB, Ipswich, USA) using oligonucleotides hSTING140-BamH-For ([…]) (SEQ ID NO:5) and hSTING379-Not-Rev3 ([…]) (SEQ ID NO:6) from pUNOI-hSTING-WT (cat. # punol-hstingwt, InvivoGen, San Diego, USA) and pUNO1-hSTING-HAQ plasmids (punol-hsting-haq, InvivoGen, San Diego, USA). Purified PCR products were cleaved with restriction enzymes BamHI (cat. # R^0136S, NEB, Ipswich, USA) and NotI (cat. # R^0189S, NEB, Ipswich, USA) and cloned into the pSUMO vector linearized with the identical enzymes. Plasmid pSUMO was created by introducing 8-His-SUMO sequence between NdeI and BamHI sites of pHis-parallel2 plasmid (Clontech, Moutain View, USA). pSUMO-STING WT or pSUMO-STING AQ plasmids thus encoded truncated human WT STING or AQ STING (amino acid residues 140-343) with N-terminal 8×His and SUMO tag.
(§2) The recombinant WT STING and AQ STING proteins were overexpressed in Rosetta-gami B (DE3) competent cells (cat. #71136-3, Merck Millipore, Billerica, USA). Bacterial pellets were re-suspended in ice-cold lysis buffer containing 50 mmol·l^−1 TrisCl (cat. # T1503, Sigma Aldrich, Czech Republic) pH 8.0, 300 mmol·l^−1 NaCl, 3 mmol·l^−1 (3-mercaptoethanol (cat. # M6250, Sigma Aldrich, Czech Republic), 10% glycerol (cat. #G5516, Sigma Aldrich, Czech Republic) and 20 mmol·l^−1 imidazole (cat. #15513, Sigma Aldrich, Czech Republic) using Dounce homogenizer. DNase I (cat. # D5025, Sigma Aldrich, Czech Republic) and RNase A (cat. # R^6513, Sigma Aldrich, Czech Republic) were added (final concentration 50 μg/ml) together with MgCl2 (final concentration 5 mmol·l^−1) to the homogenate and bacteria were lysed using French Press G-M™ High-Pressure Cell Press Homogenizer (1500 psi, 3 cycles). Lysate was spun 30,000 g for 20 minutes and supernatant was gently stirred with Ni-NTA resin (cat. #745400.25 Macherey-Nagel, Duren, Germany) for 30 minutes. The resin was poured into a chromatography column, washed with 50 ml buffer A (50 mmol·l^−1 TrisCl (pH 8.0), 800 mmol·l^−1 NaCl, 3 mmol·l^−1β-mercaptoethanol; 10% glycerol; 20 mmol·l^−1 imidazole) and 8-His-SUMO tagged STING proteins were eluted with 15 ml buffer A containing 300 mmol·l^−1 imidazole. The eluted proteins were cleaved with recombinant SUMO protease (80 pig/ml of protein solution, cat. #12588018, ThermoFisher, Waltham, USA). The proteins were further purified by size exclusion chromatography using HiLoad 16/60 Superdex 75 (cat. #28989333, GE Healthcare Bio-Sciences, Pittsburgh, USA) in 50 mmol·l^−1 Tris C1 buffer pH 7.4 containing 150 mmol·l^−1 NaCl, and 10% glycerol. Proteins were concentrated with Amicon® Ultra-15 10 K device (cat. # UFC901008, Merck Millipore, Billerica, USA) and flash frozen in liquid N2.
(§3) WT and AQ allelic forms of STING protein were diluted to the final concentration 0.1 mg/ml in 100 mmol·l^−1 TrisCl buffer pH 7.4 containing, 150 mmol·l^−1 NaCl, 1:500 SYPRO Orange (cat. # S6650, ThermoFisher, Waltham, USA) and 150 μM CDN or water. 20 μL solutions of the reaction mixtures were pipetted in triplicates into 96 well optical reaction plates and thermal denaturation of samples were performed on real time PCR cycler (LightCycler® 480 Instrument II—Roche, Basel, Switzerland). The first derivative of the thermal denaturation curves was performed to calculate denaturing temperatures of STING-CDN complexes and STING apoproteins. The thermal shift for each CDN was calculated by subtracting the average denaturing temperature of STING apoprotein from the average denaturing temperature of STING CDN complex.

[2] = molecular target: WT STING (Homo sapiens, UniProt Q86WV6, H232R); experiment: Differential scanning fluorimetry (DSF) with WT STING; format: binding; parameters: truncated human WT STING or AQ STING (amino acid residues 140-343); 8xHis (N, cleaved yes); SUMO (N, cleaved yes); made in house; host or cells: E. coli Rosetta-gami B (DE3); details: thermal shift, truncated human WT STING 0.1 mg/ml, 150 μM CDN; for ΔTm at 150 µM: read-out: DSF ΔTm WT STING
Chain of WT STING (Q86WV6 140-343 H232R): as the sequence (Q86WV6 140-343 G230A/H232R/R293Q) above, with A91G, Q154R counted along it
Text: as §1, §2, §3

Row | SMILES | DSF ΔTm AQ STING [1] [°C] | DSF ΔTm WT STING [2] [°C] | ΔTm at 150 µM [1] [°C] | ΔTm at 150 µM [2] [°C]
1 | Nc1ncnc2c1ncn2[C@@H]1O[C@@H]2COP(=O)(S)O[C@@H]3[C@H](F)[C@@H](COP(=O)(S)O[C@H]2[C@H]1F)C[C@H]3n1cnc2c(=O)[nH]cnc21 (single isomer, unassigned) [Compound 128c] | 18.2 | 11.4 |  | 
2 | C#Cc1cn([C@@H]2O[C@@H]3COP(=O)(O)OC4C(O)[C@@H](COP(=O)(O)OC3C2O)C[C@H]4n2cnc3c(=O)[nH]c(N)nc32)c2ncnc(N)c12 (stereo partly drawn) [Compound 114, (6R,8R,15R,17R)-8-{4-amino-5-ethynyl-7H-pyrrolo 2,3-dlpyrimidin-7-yl}-17-(2-amino-6-oxo-6,9-dihydro-1H-purin-9-yl)-3,9,12,18-tetrahydroxy-2,4,7,11,13-pentaoxa-3λ^5,12λ^5-diphosphatricyclo[13.2.1.0^6,10]octadecane-3,12-dione] |  |  | 10.3 | 4.4
3 | Nc1nc2c(ncn2[C@@H]2C[C@@H]3COP(=O)(O)OC4C(O)[C@H](n5cnc6c(N)ncnc65)O[C@@H]4COP(=O)(O)OC2C3O)c(=O)[nH]1 (stereo partly drawn) [Compound 102, (6R,8R,15R,17R)-17-(2-amino-6-oxo-6,9-dihydro-1H-purin-9-yl)-8-(6-amino-9H-purin-9-yl)-3,9,12,18-tetrahydroxy-2,4,7,11,13-pentaoxa-3λ^5,12λ^5-diphosphatricyclo[13.2.1.0^6,10]octadecane-3,12-dione] |  |  | 19.8 | 13.3
4 | CSc1ncnc2c1ncn2[C@@H]1O[C@@H]2COP(=O)(O)OC3C(O)[C@@H](COP(=O)(O)OC2C1O)C[C@H]3n1cnc2c(=O)[nH]c(N)nc21 (stereo partly drawn) [Compound 110, (6R,8R,15R,17R)-17-(2-amino-6-oxo-6,9-dihydro-1H-purin-9-yl)-3,9,12,18-tetrahydroxy-8-[6-(methylsulfanyl)-9H-purin-9-yl]-2,4,7,11,13-pentaoxa-3λ^5,12λ^5-diphosphatricyclo[13.2.1.0^6,10]octadecane-3,12-dione] |  |  | 10.1 | 4.9
5 | Cc1cn([C@@H]2O[C@@H]3COP(=O)(O)OC4C(O)[C@@H](COP(=O)(O)OC3C2O)C[C@H]4n2cnc3c(=O)[nH]c(N)nc32)c2ncnc(N)c12 (stereo partly drawn) [Compound 113, (6R,8R,15R,17R)-8-{4-amino-5-methyl-7H-pyrrolo[2,3-d]pyrimidin-7-yl}-17-(2-amino-6-oxo-6,9-dihydro-1H-purin-9-yl)-3,9,12,18-tetrahydroxy-2,4,7,11,13-pentaoxa-3λ^5,12λ^5-diphosphatricyclo[13.2.1.0^6,10]octadecane-3,12-dione] |  |  | 11.6 | 6
6 | CNc1ncnc2c1ncn2[C@@H]1O[C@@H]2COP(=O)(O)OC3C(O)[C@@H](COP(=O)(O)OC2C1O)C[C@H]3n1cnc2c(=O)[nH]c(N)nc21 (stereo partly drawn) [Compound 108, (6R,8R,15R,17R)-17-(2-amino-6-oxo-6,9-dihydro-1H-purin-9-yl)-3,9,12,18-tetrahydroxy-8-[6-(methylamino)-9H-purin-9-yl]-2,4,7,11,13-pentaoxa-3λ^5,12λ^5-diphosphatricyclo[13.2.1.0^6,10]octadecane-3,12-dione] |  |  | 12.5 | 6
